# Measurements as given in ChEMBL document CHEMBL4145445, “Design, synthesis and biological assessment of new thiazolylhydrazine derivatives as selective and reversible hMAO-A inhibitors” (Eur J Med Chem, 2018).
# Legend:
# [1] = target: T1, Amine oxidase [flavin-containing] B (Homo sapiens, UniProt P27338); assay: Inhibition of human MAO-B using tyramine hydrochloride as substrate after 30 mins by Amplex Red reagent based horseradish peroxidase enzyme-coupled fluorescence assay
# T1 sequence (P27338 whole entry): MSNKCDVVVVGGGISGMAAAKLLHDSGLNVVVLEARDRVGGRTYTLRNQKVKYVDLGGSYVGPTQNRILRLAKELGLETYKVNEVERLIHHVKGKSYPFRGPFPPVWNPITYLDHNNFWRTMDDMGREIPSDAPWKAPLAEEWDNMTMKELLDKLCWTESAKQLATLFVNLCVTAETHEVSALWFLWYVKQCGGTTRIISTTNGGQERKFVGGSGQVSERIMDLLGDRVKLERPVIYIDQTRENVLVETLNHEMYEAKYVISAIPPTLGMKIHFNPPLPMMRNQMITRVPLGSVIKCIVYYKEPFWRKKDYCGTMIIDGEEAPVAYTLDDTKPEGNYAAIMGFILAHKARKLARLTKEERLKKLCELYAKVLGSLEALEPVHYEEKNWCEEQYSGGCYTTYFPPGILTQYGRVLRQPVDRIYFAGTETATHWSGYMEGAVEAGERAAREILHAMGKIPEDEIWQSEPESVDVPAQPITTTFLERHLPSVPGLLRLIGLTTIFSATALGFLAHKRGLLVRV
# [2] = target: T2, Amine oxidase [flavin-containing] A (Homo sapiens, UniProt P21397); assay: Inhibition of human MAO-A at 10^-4 to 10^-3 M using tyramine hydrochloride as substrate after 30 mins by Amplex Red reagent based horseradish peroxidase enzyme-coupled fluorescence assay relative to control; details: 0.5 h
# T2 sequence (P21397 whole entry): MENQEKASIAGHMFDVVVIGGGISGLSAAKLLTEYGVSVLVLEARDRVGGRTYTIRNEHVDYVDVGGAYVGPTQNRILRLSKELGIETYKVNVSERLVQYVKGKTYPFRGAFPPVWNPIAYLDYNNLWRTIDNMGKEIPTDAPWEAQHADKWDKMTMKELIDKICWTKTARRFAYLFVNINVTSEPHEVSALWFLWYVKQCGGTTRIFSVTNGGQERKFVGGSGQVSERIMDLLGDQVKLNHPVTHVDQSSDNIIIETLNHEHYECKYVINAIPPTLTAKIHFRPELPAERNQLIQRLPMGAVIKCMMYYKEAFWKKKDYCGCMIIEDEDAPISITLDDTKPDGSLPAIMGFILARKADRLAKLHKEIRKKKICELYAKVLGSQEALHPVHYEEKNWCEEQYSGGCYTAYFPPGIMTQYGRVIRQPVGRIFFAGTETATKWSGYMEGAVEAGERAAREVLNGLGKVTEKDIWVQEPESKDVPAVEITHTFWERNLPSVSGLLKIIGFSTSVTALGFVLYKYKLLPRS
# [3] = species on record: Homo sapiens; assay: Selectivity index, ratio of IC50 for human MAO-B to IC50 for human MAO-A
# [4] = target: T1, Amine oxidase [flavin-containing] B; assay: Inhibition of human MAO-B at 10^-4 to 10^-3 M using tyramine hydrochloride as substrate after 30 mins by Amplex Red reagent based horseradish peroxidase enzyme-coupled fluorescence assay relative to control; details: 0.5 h
# [5] = target: T2, Amine oxidase [flavin-containing] A; assay: Inhibition of human MAO-A using tyramine hydrochloride as substrate after 30 mins by Amplex Red reagent based horseradish peroxidase enzyme-coupled fluorescence assay
# [6] = system: Salmonella typhimurium; assay: Genotoxicity in Salmonella typhimurium TA98 assessed as increase in revertant colonies at 5 mg/ml in absence of Sprague-Dawley rat liver S9 fraction by Ames test relative to basal level; type: toxicity, organism-based; details: salmonella enterica subsp. enterica serovar typhimurium
# [7] = system: Salmonella typhimurium; assay: Genotoxicity in Salmonella typhimurium TA100 assessed as increase in revertant colonies at 0.625 mg/ml in presence of Sprague-Dawley rat liver S9 fraction by Ames test relative to basal level; type: toxicity, organism-based; details: salmonella enterica subsp. enterica serovar typhimurium
# [8] = system: Salmonella typhimurium; assay: Genotoxicity in Salmonella typhimurium TA98 assessed as increase in revertant colonies at 0.3125 mg/ml in absence of Sprague-Dawley rat liver S9 fraction by Ames test relative to basal level; type: toxicity, organism-based; details: salmonella enterica subsp. enterica serovar typhimurium
# [9] = system: Salmonella typhimurium; assay: Genotoxicity in Salmonella typhimurium TA100 assessed as increase in revertant colonies at 5 mg/ml in presence of Sprague-Dawley rat liver S9 fraction by Ames test relative to basal level; type: toxicity, organism-based; details: salmonella enterica subsp. enterica serovar typhimurium
# [10] = system: NIH3T3; assay: Cytotoxicity against mouse NIH/3T3 cells by MTT assay; type: cell-based
# [11] = system: Salmonella typhimurium; assay: Genotoxicity in Salmonella typhimurium TA98 assessed as increase in revertant colonies at 0.156 mg/ml in presence of Sprague-Dawley rat liver S9 fraction by Ames test relative to basal level; type: toxicity, organism-based; details: salmonella enterica subsp. enterica serovar typhimurium
# [12] = system: Salmonella typhimurium; assay: Genotoxicity in Salmonella typhimurium TA100 assessed as increase in revertant colonies at 0.3125 mg/ml in presence of Sprague-Dawley rat liver S9 fraction by Ames test relative to basal level; type: toxicity, organism-based; details: salmonella enterica subsp. enterica serovar typhimurium
# [13] = system: Salmonella typhimurium; assay: Genotoxicity in Salmonella typhimurium TA98 assessed as increase in revertant colonies at 2.5 mg/ml in absence of Sprague-Dawley rat liver S9 fraction by Ames test relative to basal level; type: toxicity, organism-based; details: salmonella enterica subsp. enterica serovar typhimurium
# [14] = system: Salmonella typhimurium; assay: Genotoxicity in Salmonella typhimurium TA100 assessed as increase in revertant colonies at 0.3125 mg/ml in absence of Sprague-Dawley rat liver S9 fraction by Ames test relative to basal level; type: toxicity, organism-based; details: salmonella enterica subsp. enterica serovar typhimurium
# [15] = system: Salmonella typhimurium; assay: Genotoxicity in Salmonella typhimurium TA98 assessed as increase in revertant colonies at 2.5 mg/ml in presence of Sprague-Dawley rat liver S9 fraction by Ames test relative to basal level; type: toxicity, organism-based; details: salmonella enterica subsp. enterica serovar typhimurium
# [16] = system: Salmonella typhimurium; assay: Genotoxicity in Salmonella typhimurium TA100 assessed as increase in revertant colonies at 0.156 mg/ml in absence of Sprague-Dawley rat liver S9 fraction by Ames test relative to basal level; type: toxicity, organism-based; details: salmonella enterica subsp. enterica serovar typhimurium
# [17] = system: Salmonella typhimurium; assay: Genotoxicity in Salmonella typhimurium TA98 assessed as increase in revertant colonies at 0.3125 mg/ml in presence of Sprague-Dawley rat liver S9 fraction by Ames test relative to basal level; type: toxicity, organism-based; details: salmonella enterica subsp. enterica serovar typhimurium
# [18] = system: Salmonella typhimurium; assay: Genotoxicity in Salmonella typhimurium TA98 assessed as increase in revertant colonies at 0.625 mg/ml in presence of Sprague-Dawley rat liver S9 fraction by Ames test relative to basal level; type: toxicity, organism-based; details: salmonella enterica subsp. enterica serovar typhimurium
# [19] = system: Salmonella typhimurium; assay: Genotoxicity in Salmonella typhimurium TA100 assessed as increase in revertant colonies at 2.5 mg/ml in absence of Sprague-Dawley rat liver S9 fraction by Ames test relative to basal level; type: toxicity, organism-based; details: salmonella enterica subsp. enterica serovar typhimurium
# [20] = system: Salmonella typhimurium; assay: Genotoxicity in Salmonella typhimurium TA98 assessed as increase in revertant colonies at 5 mg/ml in presence of Sprague-Dawley rat liver S9 fraction by Ames test relative to basal level; type: toxicity, organism-based; details: salmonella enterica subsp. enterica serovar typhimurium
# [21] = system: Salmonella typhimurium; assay: Genotoxicity in Salmonella typhimurium TA100 assessed as increase in revertant colonies at 0.156 mg/ml in presence of Sprague-Dawley rat liver S9 fraction by Ames test relative to basal level; type: toxicity, organism-based; details: salmonella enterica subsp. enterica serovar typhimurium
# [22] = system: Salmonella typhimurium; assay: Genotoxicity in Salmonella typhimurium TA100 assessed as increase in revertant colonies at 1.25 mg/ml in absence of Sprague-Dawley rat liver S9 fraction by Ames test relative to basal level; type: toxicity, organism-based; details: salmonella enterica subsp. enterica serovar typhimurium
# [23] = system: Salmonella typhimurium; assay: Genotoxicity in Salmonella typhimurium TA98 assessed as increase in revertant colonies at 0.625 mg/ml in absence of Sprague-Dawley rat liver S9 fraction by Ames test relative to basal level; type: toxicity, organism-based; details: salmonella enterica subsp. enterica serovar typhimurium
# [24] = system: Salmonella typhimurium; assay: Genotoxicity in Salmonella typhimurium TA98 assessed as increase in revertant colonies at 1.25 mg/ml in absence of Sprague-Dawley rat liver S9 fraction by Ames test relative to basal level; type: toxicity, organism-based; details: salmonella enterica subsp. enterica serovar typhimurium
# [25] = system: Salmonella typhimurium; assay: Genotoxicity in Salmonella typhimurium TA100 assessed as increase in revertant colonies at 2.5 mg/ml in presence of Sprague-Dawley rat liver S9 fraction by Ames test relative to basal level; type: toxicity, organism-based; details: salmonella enterica subsp. enterica serovar typhimurium
# [26] = system: Salmonella typhimurium; assay: Genotoxicity in Salmonella typhimurium TA100 assessed as increase in revertant colonies at 1.25 mg/ml in presence of Sprague-Dawley rat liver S9 fraction by Ames test relative to basal level; type: toxicity, organism-based; details: salmonella enterica subsp. enterica serovar typhimurium
# [27] = system: Salmonella typhimurium; assay: Genotoxicity in Salmonella typhimurium TA100 assessed as increase in revertant colonies at 0.625 mg/ml in absence of Sprague-Dawley rat liver S9 fraction by Ames test relative to basal level; type: toxicity, organism-based; details: salmonella enterica subsp. enterica serovar typhimurium
# [28] = system: Salmonella typhimurium; assay: Genotoxicity in Salmonella typhimurium TA98 assessed as increase in revertant colonies at 0.156 mg/ml in absence of Sprague-Dawley rat liver S9 fraction by Ames test relative to basal level; type: toxicity, organism-based; details: salmonella enterica subsp. enterica serovar typhimurium
# [29] = target: T2, Amine oxidase [flavin-containing] A; assay: Reversible-competitive inhibition of human MAO-A using varying levels of tyramine as substrate after 30 mins by Lineweaver-Burk plot
# [30] = system: Salmonella typhimurium; assay: Genotoxicity in Salmonella typhimurium TA100 assessed as increase in revertant colonies at 5 mg/ml in absence of Sprague-Dawley rat liver S9 fraction by Ames test relative to basal level; type: toxicity, organism-based; details: salmonella enterica subsp. enterica serovar typhimurium
# [31] = system: Salmonella typhimurium; assay: Genotoxicity in Salmonella typhimurium TA98 assessed as increase in revertant colonies at 1.25 mg/ml in presence of Sprague-Dawley rat liver S9 fraction by Ames test relative to basal level; type: toxicity, organism-based; details: salmonella enterica subsp. enterica serovar typhimurium
smiles,measurement,setting,value
Fc1ccc(-c2csc(N/N=C/c3ccc(N4CCCC4)cc3)n2)cc1,IC50,[1],426 µM
same,inhibition (INH),[2],> 50%
same,Ratio IC50,[3],32.5
same,inhibition (INH),[4],> 50%
same,IC50,[5],13.1 µM
Clc1ccc(-c2csc(N/N=C/c3ccc(N4CCCC4)cc3)n2)c(Cl)c1,IC50,[1],131 µM
same,inhibition (INH),[2],> 50%
same,Ratio IC50,[3],1.26
same,inhibition (INH),[4],> 50%
same,IC50,[5],103 µM
Fc1ccc(-c2csc(N/N=C/c3ccc(N4CCOCC4)cc3)n2)cc1,fold change (FC),[6],1.66
same,fold change (FC),[7],1.12
same,fold change (FC),[8],2.28
same,fold change (FC),[9],1.28
same,IC50,[10],> 1 mM
same,fold change (FC),[11],4.38
same,fold change (FC),[12],1.01
same,fold change (FC),[13],1.45
same,fold change (FC),[14],0.56
same,IC50,[1],14.6 µM
same,fold change (FC),[15],7.95
same,fold change (FC),[16],1.11
same,fold change (FC),[17],6.07
same,fold change (FC),[18],6.97
same,fold change (FC),[19],0.83
same,fold change (FC),[20],5.81
same,fold change (FC),[21],1.07
same,fold change (FC),[22],0.72
same,fold change (FC),[23],1.59
same,inhibition (INH),[2],> 50%
same,fold change (FC),[24],2
same,fold change (FC),[25],0.96
same,Ratio IC50,[3],1210
same,inhibition (INH),[4],> 50%
same,fold change (FC),[26],0.96
same,fold change (FC),[27],1.11
same,fold change (FC),[28],1.66
same,Ki,[29],6.6 nM
same,IC50,[5],0.012 µM
same,fold change (FC),[30],1.17
same,fold change (FC),[31],7.86
Brc1ccc(-c2csc(N/N=C/c3ccc(N4CCCC4)cc3)n2)cc1,IC50,[1],> 1000 µM
same,inhibition (INH),[2],> 50%
same,Ratio IC50,[3],> 16.3
same,IC50,[5],61.3 µM
